Read-outs that look alike come from different tables or passages of the source.
Assays:
myzus persicae = conditions: for numbers of death/total numbers: 24 h
hyalopterus pruni = conditions: 24 h
aphis gossypii = conditions: 24 h

| SMILES | mortality(%) bemisia tabaci gennadius (500 μg/mL) (bemisia tabaci gennadius; in vivo) | mortality(%) myzus persicae (600 μg/mL) (myzus persicae; in vivo) | mortality(%) Helicoverpa armigera (500 μg/mL) (Helicoverpa armigera; in vivo) | mortality(%) asparagus caterpillar (500 μg/mL) (asparagus caterpillar; in vivo) | further results |
| --- | --- | --- | --- | --- | --- |
| CNC(=N[N+](=O)[O-])NN=Cc1ccc(N(C)C)cc1 [Compound 120] | 82.76% | – | – | – | – |
| CNC(=N[N+](=O)[O-])NN=Cc1ccc(F)cc1 [Compound 123] | 4.69% | – | – | – | – |
| CCCNC(=N[N+](=O)[O-])NN=Cc1ccc(OC)cc1 [Compound 130] | 18.46% | – | – | – | – |
| COc1ccc(C=NNC(=N[N+](=O)[O-])NCc2ccc(Cl)nc2)cc1 [Compound 112] | 3.77% | 54.4% | 10% | 90% | – |
| CCCCCCC=NNC(=N[N+](=O)[O-])NCc1ccc(Cl)nc1 [Compound 50] | – | 100% | 20% | 0% | numbers of death/total numbers (myzus persicae; 25 μg/mL): 78/78; numbers of death/total numbers (myzus persicae; 50 μg/mL): 91/92; numbers of death/total numbers (myzus persicae; 100 μg/mL): 87/87; numbers of death/total numbers (myzus persicae; 200 μg/mL): 103/107; numbers of death/total numbers (myzus persicae; 400 μg/mL): 96/96; numbers of death/total numbers (hyalopterus pruni; 25 μg/mL): 104/108; numbers of death/total numbers (hyalopterus pruni; 50 μg/mL): 98/102; numbers of death/total numbers (hyalopterus pruni; 100 μg/mL): 101/101; numbers of death/total numbers (hyalopterus pruni; 200 μg/mL): 110/110; numbers of death/total numbers (hyalopterus pruni; 400 μg/mL): 102/102; numbers of death/total numbers (aphis gossypii; 3.13 μg/mL): 156/157; numbers of death/total numbers (aphis gossypii; 12.5 μg/mL): 150/150; numbers of death/total numbers (aphis gossypii; 50 μg/mL): 245/245 |
| CNC(=N[N+](=O)[O-])NN=Cc1cccc(Oc2ccccc2)c1 [Compound 118] | 14.81% | – | – | – | – |
| O=[N+]([O-])N=C(NCc1ccc(Cl)nc1)NN=Cc1ccccc1 [Compound 110] | – | – | – | – | mortality(%) myzus persicae (600 μg/mL) (myzus persicae; 600 μg/mL): 92.8%; mortality(%) bemisia tabaci gennadius (500 μg/mL) (bemisia tabaci gennadius; 500 μg/mL, 48 hours): 6.67%; mortality(%) Helicoverpa armigera (500 μg/mL) (Helicoverpa armigera; 500 μg/mL, 48 hours): 0%; mortality(%) asparagus caterpillar (500 μg/mL) (asparagus caterpillar; 500 μg/mL, 48 hours): 30% |
| CCCCC=NNC(=N[N+](=O)[O-])NCc1ccc(Cl)nc1 [Compound 56] | – | 100% | 70% | 20% | numbers of death/total numbers (myzus persicae; 25 μg/mL): 104/104; numbers of death/total numbers (myzus persicae; 50 μg/mL): 96/99; numbers of death/total numbers (myzus persicae; 100 μg/mL): 149/149; numbers of death/total numbers (myzus persicae; 200 μg/mL): 81/81; numbers of death/total numbers (myzus persicae; 400 μg/mL): 77/77; numbers of death/total numbers (hyalopterus pruni; 25 μg/mL): 100/104; numbers of death/total numbers (hyalopterus pruni; 50 μg/mL): 96/101; numbers of death/total numbers (hyalopterus pruni; 100 μg/mL): 121/121; numbers of death/total numbers (hyalopterus pruni; 200 μg/mL): 101/101; numbers of death/total numbers (hyalopterus pruni; 400 μg/mL): 103/103; numbers of death/total numbers (aphis gossypii; 3.13 μg/mL): 121/157; numbers of death/total numbers (aphis gossypii; 12.5 μg/mL): 136/164; numbers of death/total numbers (aphis gossypii; 50 μg/mL): 166/178 |
| O=[N+]([O-])N=C(NCc1ccc(Cl)nc1)NN=Cc1ccco1 [Compound 115] | 9.30% | 86.0% | 10% | 80% | – |
| CCNC(=N[N+](=O)[O-])NN=Cc1ccccc1Cl [Compound 125] | 53.06% | – | – | – | – |
| CCOc1ccc(C=NNC(=N[N+](=O)[O-])NCc2ccc(Cl)nc2)cc1OC [Compound 134] | 1.82% | – | – | – | – |
| C=CCNC(=N[N+](=O)[O-])NN=Cc1ccccc1Cl [Compound 93] | – | 96.0% | 40% | 70% | numbers of death/total numbers (myzus persicae; 25 μg/mL): 112/112; numbers of death/total numbers (myzus persicae; 50 μg/mL): 94/98; numbers of death/total numbers (myzus persicae; 100 μg/mL): 104/104; numbers of death/total numbers (myzus persicae; 200 μg/mL): 114/114; numbers of death/total numbers (myzus persicae; 400 μg/mL): 93/93; numbers of death/total numbers (hyalopterus pruni; 25 μg/mL): 102/112; numbers of death/total numbers (hyalopterus pruni; 50 μg/mL): 104/108; numbers of death/total numbers (hyalopterus pruni; 100 μg/mL): 103/103; numbers of death/total numbers (hyalopterus pruni; 200 μg/mL): 110/110; numbers of death/total numbers (hyalopterus pruni; 400 μg/mL): 103/103; numbers of death/total numbers (aphis gossypii; 3.13 μg/mL): 178/186; numbers of death/total numbers (aphis gossypii; 12.5 μg/mL): 124/124; numbers of death/total numbers (aphis gossypii; 50 μg/mL): 138/138 |
| CCNC(=N[N+](=O)[O-])NN=Cc1ccc(F)cc1 [Compound 129] | 8.62% | – | – | – | – |
| CNC(=N[N+](=O)[O-])NN=Cc1ccc(OC)cc1 [Compound 121] | 16.95% | – | – | – | – |
| O=[N+]([O-])N=C(NCc1ccc(Cl)nc1)NN=Cc1ccc(F)cc1 [Compound 114] | 2.04% | 72.3% | 40% | 70% | – |
| CNC(=N[N+](=O)[O-])NN=Cc1ccco1 [Compound 124] | 88.68% | – | – | – | – |
| COc1ccc(C=NNC(=N[N+](=O)[O-])NCc2ccccc2)cc1 [Compound 131] | 1.89% | – | – | – | – |
| O=[N+]([O-])N=C(NCc1ccc(Cl)nc1)NN=Cc1ccccc1Cl [Compound 111] | 13.89% | 22.0% | 0% | 40% | – |
| CCNC(=N[N+](=O)[O-])NN=Cc1ccc(OC)cc1 [Compound 127] | 24.56% | – | – | – | – |
| CNC(=N[N+](=O)[O-])NN=CC(C)C [Compound 1, 2-isobutylidene-N-methyl-N′-nitrohydrozinecarboximidamide] | – | 4.7% | – | 40% | mortality(%) Helicoverpa armigera (500 μg/mL) (Helicoverpa armigera; 500 μg/mL, 48 hours): 40% |
| CCCNC(=N[N+](=O)[O-])NN=Cc1ccc(F)cc1 [Compound 100] | – | 20.3% | 20% | 90% | – |
| CNC(=N[N+](=O)[O-])NN=Cc1ccccc1OC [Compound 119] | – | – | – | – | mortality(%) bemisia tabaci gennadius (500 μg/mL) (bemisia tabaci gennadius; 500 μg/mL, 48 hours): 72.00% |
| CCNC(=N[N+](=O)[O-])NN=Cc1ccc(N(C)C)cc1 [Compound 69] | – | 90.6% | 30% | 80% | – |
| CCNC(=N[N+](=O)[O-])NN=Cc1ccc(OCC)c(OC)c1 [Compound 126] | 6.67% | – | – | – | – |
| CNC(=N[N+](=O)[O-])NN=Cc1ccccc1Cl [Compound 117] | 17.78% | – | – | – | – |
| O=[N+]([O-])N=C(NCc1ccccc1)NN=Cc1ccc(F)cc1 [Compound 133] | 3.77% | – | – | – | – |
| CCCCC=NNC(=N[N+](=O)[O-])NCCC [Compound 51] | – | 13.3% | – | 10% | mortality(%) Helicoverpa armigera (500 μg/mL) (Helicoverpa armigera; 500 μg/mL, 48 hours): 30% |
| CC(C)C=NNC(=N[N+](=O)[O-])NCc1ccccc1 [Compound 7] | – | 18.4% | – | 50% | mortality(%) Helicoverpa armigera (500 μg/mL) (Helicoverpa armigera; 500 μg/mL, 48 hours): 40% |

From patent US20110306639A1, “HYDROCARBYLIDENE NITROHYDROZINECARBOXIMIDAMIDES AND A METHOD FOR MAKING THE SAME, AS WELL AS THEIR USES AS AN INSECTICIDE” (priority 2008, published 2011)
